Test results as given in patent US20150105252A1, “SUBSTITUTED PYRAZOLES AS HERBICIDES” (E I DU PONT DE NEMOURS AND COMPANY, priority 2013, published 2015).

Columns and labels:
[1] = test system: kochia; assay: Test C postemergence; type: in vivo, Kochia scoparia; conditions: for Plant response rating (scale of 0 to 100 where 0 is no effect and 100 is complete control), Kochia: Postemergence, 31 g ai/ha, visually evaluated after 13 to 15 days; for Kochia plant response rating / Plant response rating, Kochia: postemergence; for Kochia plant response rating: 62 g ai/ha, scale 0 to 100
In short: (§1)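 In this greenhouse assay, seeded soil (loam plus sand) or emerged seedlings in peat-vermiculite medium were treated with formulated compound. Roughly two weeks later (13–15 days), each species was scored visually relative to controls, from 0 for no effect to 100 for complete control.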

[2] = test system: oat, wild; assay: Test C postemergence; type: in vivo, Avena fatua; conditions: for Plant response rating (scale of 0 to 100 where 0 is no effect and 100 is complete control), Oat, Wild: Postemergence, 31 g ai/ha, visually evaluated after 13 to 15 days; for Oat, Wild plant response rating / Plant response rating, Oat, Wild: postemergence; for Oat, Wild plant response rating: 62 g ai/ha, scale 0 to 100
In short: as §1

[3] = test system: blackgrass; assay: Test C postemergence; type: in vivo, Alopecurus myosuroides; conditions: for Plant response rating (scale of 0 to 100 where 0 is no effect and 100 is complete control), Blackgrass: Postemergence, 31 g ai/ha, visually evaluated after 13 to 15 days; for Blackgrass plant response rating / Plant response rating, Blackgrass: postemergence; for Blackgrass plant response rating: 62 g ai/ha, scale 0 to 100
In short: as §1

[4] = test system: barnyardgrass; assay: Test C postemergence; type: in vivo, Echinochloa crus-galli; conditions: for Plant response rating (scale of 0 to 100 where 0 is no effect and 100 is complete control), Barnyardgrass: Postemergence, 31 g ai/ha, visually evaluated after 13 to 15 days; for Barnyardgrass plant response rating / Plant response rating, Barnyardgrass: postemergence; for Barnyardgrass plant response rating: 62 g ai/ha, scale 0 to 100
In short: as §1

[5] = test system: morningglory; assay: Test C postemergence; type: in vivo, Ipomoea coccinea; conditions: for Plant response rating (scale of 0 to 100 where 0 is no effect and 100 is complete control), Morningglory: Postemergence, 31 g ai/ha, visually evaluated after 13 to 15 days; for Morningglory plant response rating / Plant response rating, Morningglory: postemergence; for Morningglory plant response rating: 62 g ai/ha, scale 0 to 100
In short: as §1

[6] = test system: waterhemp; assay: Test C postemergence; type: in vivo, Amaranthus rudis; conditions: postemergence; for Plant response rating, Waterhemp: 250 g ai/ha, scale 0 to 100 (0 no effect, 100 complete control)
In short: as §1

[7] = test system: oilseed rape; assay: Test C postemergence; type: in vivo, Brassica napus; conditions: postemergence; for Oilseed Rape plant response rating: 62 g ai/ha, scale 0 to 100
In short: as §1

[8] = test system: ryegrass, Italian; assay: Test C postemergence; type: in vivo, Lolium multiflorum; conditions: postemergence
In short: as §1

[9] = test system: galium; assay: Test C postemergence; type: in vivo, Galium aparine; conditions: for Plant response rating (scale of 0 to 100 where 0 is no effect and 100 is complete control), Galium: Postemergence, 31 g ai/ha, visually evaluated after 13 to 15 days; for Galium plant response rating / Plant response rating, Galium: postemergence; for Galium plant response rating: 62 g ai/ha, scale 0 to 100
In short: as §1

[10] = test system: crabgrass, large; assay: Test C postemergence; type: in vivo, Digitaria sanguinalis; conditions: for Plant response rating (scale of 0 to 100 where 0 is no effect and 100 is complete control), Crabgrass, Large: Postemergence, 31 g ai/ha, visually evaluated after 13 to 15 days; for Crabgrass, Large plant response rating / Plant response rating, Crabgrass, Large: postemergence; for Crabgrass, Large plant response rating: 62 g ai/ha, scale 0 to 100
In short: as §1

[11] = test system: nutsedge, yellow; assay: Test C postemergence; type: in vivo, Cyperus esculentus; conditions: for Plant response rating (scale of 0 to 100 where 0 is no effect and 100 is complete control), Nutsedge, Yellow: Postemergence, 31 g ai/ha, visually evaluated after 13 to 15 days; for Nutsedge, Yellow plant response rating / Plant response rating, Nutsedge, Yellow: postemergence; for Nutsedge, Yellow plant response rating: 62 g ai/ha, scale 0 to 100
In short: as §1

[12] = test system: lambsquarters; assay: Test C postemergence; type: in vivo, Chenopodium album; conditions: for Plant response rating (scale of 0 to 100 where 0 is no effect and 100 is complete control), Lambsquarters: Postemergence, 31 g ai/ha, visually evaluated after 13 to 15 days; for Lambsquarters plant response rating / Plant response rating, Lambsquarters: postemergence; for Lambsquarters plant response rating: 62 g ai/ha, scale 0 to 100
In short: as §1

[13] = test system: lambsquarters; assay: Test C preemergence; type: in vivo, Chenopodium album; conditions: preemergence; for Plant response rating, Lambsquarters: 125 g ai/ha, scale 0 to 100, 0 = no effect, 100 = complete control
In short: as §1

[14] = test system: foxtail, giant; assay: Test C postemergence; type: in vivo, Setaria faberii; conditions: for Plant response rating (scale of 0 to 100 where 0 is no effect and 100 is complete control), Foxtail, Giant: Postemergence, 31 g ai/ha, visually evaluated after 13 to 15 days; for Foxtail, Giant plant response rating / Plant response rating, Foxtail, Giant: postemergence; for Foxtail, Giant plant response rating: 62 g ai/ha, scale 0 to 100
In short: as §1

[15] = test system: velvetleaf; assay: Test C postemergence; type: in vivo, Abutilon theophrasti; conditions: postemergence; for Plant response rating, Velvetleaf: 250 g ai/ha, scale 0 to 100 (0 no effect, 100 complete control); for Velvetleaf plant response rating: scale 0 to 100
In short: as §1

[16] = 250 g ai/ha, scale 0 to 100 (0 no effect, 100 complete control)
[17] = 125 g ai/ha, scale 0 to 100, 0 no effect, 100 complete control
[18] = 31 g ai/ha, visual rating, scale 0 to 100 (0 no effect, 100 complete control), 13 to 15 days
[19] = 62 g ai/ha, scale 0 to 100 (0 no effect, 100 complete control), 13 to 15 days
[20] = 250 g ai/ha, scale 0 to 100, 0 is no effect, 100 is complete control

Compound: CCCc1cc(C(=O)NOCC)nn1Cc1ccnc(C(F)(F)F)c1 [Compound 185]
- Plant response rating (scale of 0 to 100 where 0 is no effect and 100 is complete control), Kochia [1]: 50
- Kochia plant response rating [1]: 60
- Plant response rating, Kochia [1, 16]: 80
- Plant response rating, Kochia [1, 17]: 75
- Plant response rating (scale of 0 to 100 where 0 is no effect and 100 is complete control), Oat, Wild [2]: 5
- Oat, Wild plant response rating [2]: 10
- Plant response rating, Oat, Wild [2, 16]: 15
- Plant response rating, Oat, Wild [2, 17]: 10
- Plant response rating (scale of 0 to 100 where 0 is no effect and 100 is complete control), Blackgrass [3]: 0
- Blackgrass plant response rating [3]: 0
- Plant response rating, Blackgrass [3, 16]: 5
- Plant response rating, Blackgrass [3, 17]: 5
- Plant response rating (scale of 0 to 100 where 0 is no effect and 100 is complete control), Barnyardgrass [4]: 0
- Barnyardgrass plant response rating [4]: 0
- Plant response rating, Barnyardgrass [4, 16]: 20
- Plant response rating, Barnyardgrass [4, 17]: 5
- Plant response rating (scale of 0 to 100 where 0 is no effect and 100 is complete control), Morningglory [5]: 40
- Morningglory plant response rating [5]: 45
- Plant response rating, Morningglory [5, 16]: 75
- Plant response rating, Morningglory [5, 17]: 85
- Plant response rating, Waterhemp [6]: 85
- Waterhemp plant response rating ([6]; scale 0 to 100): 35
- Oilseed Rape plant response rating [7]: 40
- Plant response rating, Oilseed Rape [7, 16]: 70
- Plant response rating, Oilseed Rape [7, 17]: 50
- Plant response rating, Ryegrass, Italian [8, 16]: 0
- Plant response rating, Ryegrass, Italian [8, 17]: 0
- Plant response rating (scale of 0 to 100 where 0 is no effect and 100 is complete control), Galium [9]: 40
- Galium plant response rating [9]: 40
- Plant response rating, Galium [9, 16]: 70
- Plant response rating, Galium [9, 17]: 45
- Plant response rating (scale of 0 to 100 where 0 is no effect and 100 is complete control), Crabgrass, Large [10]: 5
- Crabgrass, Large plant response rating [10]: 5
- Plant response rating, Crabgrass, Large [10, 16]: 45
- Plant response rating, Crabgrass, Large [10, 17]: 5
- Plant response rating (scale of 0 to 100 where 0 is no effect and 100 is complete control), Nutsedge, Yellow [11]: 0
- Nutsedge, Yellow plant response rating [11]: 0
- Plant response rating, Nutsedge, Yellow [11, 16]: 10
- Plant response rating, Nutsedge, Yellow [11, 17]: 5
- Plant response rating (scale of 0 to 100 where 0 is no effect and 100 is complete control), Lambsquarters [12]: 70
- Lambsquarters plant response rating [12]: 35
- Plant response rating, Lambsquarters [12, 16]: 65
- Plant response rating, Lambsquarters [12, 17]: 45
- Lambsquarters plant response rating [13, 18]: 98
- Lambsquarters plant response rating [13, 19]: 98
- Plant response rating, Lambsquarters ([13]; 13 to 15 days): 100
- Lambsquarters plant response rating [13, 20]: 100
- Plant response rating (scale of 0 to 100 where 0 is no effect and 100 is complete control), Foxtail, Giant [14]: 5
- Foxtail, Giant plant response rating [14]: 5
- Plant response rating, Foxtail, Giant [14, 16]: 5
- Plant response rating, Foxtail, Giant [14, 17]: 10
- Plant response rating, Velvetleaf [15]: 35
- Velvetleaf plant response rating [15]: 25

Compound: CCOc1cc(C(=O)NC(C)C)nn1Cc1ccnc(C(F)(F)F)c1 [Compound 188]
- Plant response rating (scale of 0 to 100 where 0 is no effect and 100 is complete control), Kochia [1]: 90
- Kochia plant response rating [1]: 90
- Plant response rating, Kochia [1, 16]: 90
- Plant response rating, Kochia [1, 17]: 90
- Plant response rating (scale of 0 to 100 where 0 is no effect and 100 is complete control), Oat, Wild [2]: 15
- Oat, Wild plant response rating [2]: 10
- Plant response rating, Oat, Wild [2, 16]: 85
- Plant response rating, Oat, Wild [2, 17]: 60
- Plant response rating (scale of 0 to 100 where 0 is no effect and 100 is complete control), Blackgrass [3]: 5
- Blackgrass plant response rating [3]: 5
- Plant response rating, Blackgrass [3, 16]: 70
- Plant response rating, Blackgrass [3, 17]: 40
- Plant response rating (scale of 0 to 100 where 0 is no effect and 100 is complete control), Barnyardgrass [4]: 5
- Barnyardgrass plant response rating [4]: 15
- Plant response rating, Barnyardgrass [4, 16]: 65
- Plant response rating, Barnyardgrass [4, 17]: 30
- Plant response rating (scale of 0 to 100 where 0 is no effect and 100 is complete control), Morningglory [5]: 85
- Morningglory plant response rating [5]: 90
- Plant response rating, Morningglory [5, 16]: 98
- Plant response rating, Morningglory [5, 17]: 98
- Plant response rating, Waterhemp [6]: 95
- Oilseed Rape plant response rating [7]: 60
- Plant response rating, Oilseed Rape [7, 16]: 90
- Plant response rating, Oilseed Rape [7, 17]: 70
- Plant response rating, Ryegrass, Italian [8, 16]: 35
- Plant response rating, Ryegrass, Italian [8, 17]: 20
- Plant response rating (scale of 0 to 100 where 0 is no effect and 100 is complete control), Galium [9]: 80
- Galium plant response rating [9]: 80
- Plant response rating, Galium [9, 16]: 90
- Plant response rating, Galium [9, 17]: 90
- Plant response rating (scale of 0 to 100 where 0 is no effect and 100 is complete control), Crabgrass, Large [10]: 5
- Crabgrass, Large plant response rating [10]: 55
- Plant response rating, Crabgrass, Large [10, 16]: 95
- Plant response rating, Crabgrass, Large [10, 17]: 70
- Plant response rating (scale of 0 to 100 where 0 is no effect and 100 is complete control), Nutsedge, Yellow [11]: 5
- Nutsedge, Yellow plant response rating [11]: 35
- Plant response rating, Nutsedge, Yellow [11, 16]: 10
- Plant response rating, Nutsedge, Yellow [11, 17]: 5
- Plant response rating (scale of 0 to 100 where 0 is no effect and 100 is complete control), Lambsquarters [12]: 60
- Lambsquarters plant response rating [12]: 75
- Plant response rating, Lambsquarters [12, 16]: 95
- Plant response rating, Lambsquarters [12, 17]: 90
- Lambsquarters plant response rating [13, 18]: 100
- Lambsquarters plant response rating [13, 19]: 100
- Plant response rating, Lambsquarters ([13]; 13 to 15 days): 100
- Lambsquarters plant response rating [13, 20]: 100
- Plant response rating (scale of 0 to 100 where 0 is no effect and 100 is complete control), Foxtail, Giant [14]: 5
- Foxtail, Giant plant response rating [14]: 40
- Plant response rating, Foxtail, Giant [14, 16]: 90
- Plant response rating, Foxtail, Giant [14, 17]: 60
- Plant response rating, Velvetleaf [15]: 80
- Velvetleaf plant response rating [15]: 60
